Test results from patent EP3421457B1, “PYRIMIDINE FGFR4 INHIBITORS” (priority 2013, dated 2015).
Where a name gives a salt, the structure may show the parent alone. Read-outs that look alike come from different tables or passages of the source.

Assays:
HEPG2 = experiment: Cellular Viability assay to obtain GI50 (CellTiter-Glo); format: cell-based; details: Homo sapiens; HEPG2, 72h, FGF19 non-amplified
Hep3B cells = format: in vivo; details: Hep3B xenograft; for efficacy (tumor volume): FIG. 4
JHH7 = experiment: Cellular Viability assay to obtain GI50 (CellTiter-Glo); format: cell-based; details: Homo sapiens; JHH7, 72h, FGF19 amplified line
HEP3B = experiment: as above; format: cell-based; details: Homo sapiens, 72h, FGF19 amplified line
HUH7 = experiment: as above; format: cell-based; details: Homo sapiens, Huh-7; HUH7, 72h, FGF19 amplified line
FGFR1 = molecular target: T1, FGFR1 (Homo sapiens, UniProt P11362); experiment: IC50 Profiling of Kinase Activity Inhibition (Kinase HotSpot assay); format: biochemical; details: Table 1
T1 construct: purchased Invitrogen
T1 sequence (P11362 22-822): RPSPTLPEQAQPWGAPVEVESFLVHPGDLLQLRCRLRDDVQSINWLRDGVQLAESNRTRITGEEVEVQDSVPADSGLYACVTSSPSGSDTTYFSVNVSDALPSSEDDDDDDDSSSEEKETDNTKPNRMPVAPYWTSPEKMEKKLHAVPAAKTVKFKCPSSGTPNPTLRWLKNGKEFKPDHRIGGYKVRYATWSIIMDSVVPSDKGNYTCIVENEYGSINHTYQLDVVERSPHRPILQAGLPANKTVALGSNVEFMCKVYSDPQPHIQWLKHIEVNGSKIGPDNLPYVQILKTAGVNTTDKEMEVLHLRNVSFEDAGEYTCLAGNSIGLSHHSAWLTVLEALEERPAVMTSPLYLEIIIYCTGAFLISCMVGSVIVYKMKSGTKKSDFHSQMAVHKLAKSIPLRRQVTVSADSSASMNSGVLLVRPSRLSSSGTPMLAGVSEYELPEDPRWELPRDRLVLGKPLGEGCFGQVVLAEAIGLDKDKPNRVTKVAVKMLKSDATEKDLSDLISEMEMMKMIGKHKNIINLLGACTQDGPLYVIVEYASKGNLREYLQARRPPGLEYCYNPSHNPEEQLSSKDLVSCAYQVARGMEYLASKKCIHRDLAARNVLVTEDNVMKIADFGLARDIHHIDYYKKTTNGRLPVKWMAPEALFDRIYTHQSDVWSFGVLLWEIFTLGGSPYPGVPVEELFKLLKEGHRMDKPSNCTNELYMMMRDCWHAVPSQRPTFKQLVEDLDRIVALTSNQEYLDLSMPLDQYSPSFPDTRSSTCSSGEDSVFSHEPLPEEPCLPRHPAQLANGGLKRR

FGFR4 = molecular target: T2, FGFR4 (Homo sapiens, UniProt P22455); experiment: as above; format: biochemical; details: Table 1
T2 construct: purchased Invitrogen
T2 sequence (P22455 22-802): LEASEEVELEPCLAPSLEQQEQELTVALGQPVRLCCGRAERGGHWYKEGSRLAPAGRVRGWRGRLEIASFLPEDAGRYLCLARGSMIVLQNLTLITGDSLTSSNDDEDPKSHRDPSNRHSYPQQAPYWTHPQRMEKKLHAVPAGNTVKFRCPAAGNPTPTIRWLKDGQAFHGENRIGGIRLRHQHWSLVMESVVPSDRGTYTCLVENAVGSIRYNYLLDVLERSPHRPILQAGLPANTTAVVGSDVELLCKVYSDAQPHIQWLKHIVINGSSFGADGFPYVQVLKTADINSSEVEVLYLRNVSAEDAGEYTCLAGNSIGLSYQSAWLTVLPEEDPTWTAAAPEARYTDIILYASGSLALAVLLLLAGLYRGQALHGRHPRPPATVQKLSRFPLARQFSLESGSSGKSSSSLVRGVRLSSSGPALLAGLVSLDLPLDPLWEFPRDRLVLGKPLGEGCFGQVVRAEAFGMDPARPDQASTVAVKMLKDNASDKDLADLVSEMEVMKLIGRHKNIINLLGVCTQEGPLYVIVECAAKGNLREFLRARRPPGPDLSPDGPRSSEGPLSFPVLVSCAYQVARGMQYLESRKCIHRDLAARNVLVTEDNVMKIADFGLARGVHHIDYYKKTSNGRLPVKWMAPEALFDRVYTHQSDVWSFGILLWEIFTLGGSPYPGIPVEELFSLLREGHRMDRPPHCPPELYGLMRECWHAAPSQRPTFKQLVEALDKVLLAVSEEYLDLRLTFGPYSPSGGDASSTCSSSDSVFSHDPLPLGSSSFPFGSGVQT

CCN1CCN(c2ccc(Nc3cc(N(C)C(=O)Nc4c(Cl)c(OC)cc(OC)c4Cl)ncn3)cc2)CC1 [BGJ398]
GI50 (HEPG2): 2260 ± 1180 nM
efficacy (tumor volume) (Hep3B cells; BGJ398 at 60mg/kg): efficacy comparable to compound 108
toxicity (health of animals) (Hep3B cells; BGJ398 at 60mg/kg): terminated on Day 11 due to poor health of animals
toxicity (health of animals) (Hep3B cells; dosed orally with BGJ398 at 30mg/kg): did not exhibit poor health
GI50 (JHH7): 178 ± 30 nM
GI50 (HEP3B): 74 ± 23 nM
GI50 (HUH7): 231 ± 100 nM

C=CC(=O)Nc1ccccc1Nc1cc(N(C)C(=O)Nc2cccc(OC)c2Cl)ncn1 [Compound 103]
IC50 (FGFR1): > 10000 nM
IC50 (FGFR4): 673 nM

C=CC(=O)Nc1ccccc1Nc1cc(N(C)C(=O)Nc2cc(OC)cc(OC)c2Cl)ncn1 [Compound 105]
IC50 (FGFR1): > 10000 nM
IC50 (FGFR4): 201 nM

C=CC(=O)Nc1cc(N2CCN(CC)CC2)ccc1Nc1cc(N(C)C(=O)Nc2c(Cl)c(OC)cc(OC)c2Cl)ncn1 [Compound 108, N-(2-(6-(3-(2,6-Dichloro-3,5-dimethoxyphenyl)-1-methylureido)pyrimidin-4-ylamino)-5-(4-ethylpiperazin-1-yl)phenyl)acrylamide]
efficacy (tumor volume) (Hep3B cells; dosed for 18 days, Compound 108 versus BGJ398): more efficacious than BGJ398 at tolerable dosage levels

C=CC(=O)Nc1cccc(C)c1Nc1cc(N(C)C(=O)Nc2c(Cl)c(OC)cc(OC)c2Cl)ncn1 [Compound 165, N-(2-((6-(3-(2,6-dichloro-3,5-dimethoxyphenyl)-1-methylureido)pyrimidin-4-yl)amino)-3-methylphenyl)acrylamide]
IC50 (FGFR4): < 1 nM

C=CC(=O)Nc1cccc(OC)c1Nc1cc(N(C)C(=O)Nc2c(Cl)c(OC)cc(OC)c2Cl)ncn1 [Compound 166, N-(2-((6-(3-(2,6-dichloro-3,5-dimethoxyphenyl)-1-methylureido)pyrimidin-4-yl)amino)-3-methoxyphenyl)acrylamide]
IC50 (FGFR4): < 1 nM

C=CC(=O)Nc1cccc(Cl)c1Nc1cc(N(C)C(=O)Nc2c(Cl)c(OC)cc(OC)c2Cl)ncn1 [Compound 167, N-(3-chloro-2-((6-(3-(2,6-dichloro-3,5-dimethoxyphenyl)-1-methylureido)pyrimidin-4-yl)amino)phenyl)acrylamide]
IC50 (FGFR4): < 1 nM

C=CC(=O)Nc1cc(N2CCN(CCO)CC2)ccc1Nc1cc(N(C)C(=O)Nc2c(Cl)c(OC)cc(OC)c2Cl)ncn1 [Compound 168, N-(2-((6-(3-(2,6-dichloro-3,5-dimethoxyphenyl)-1-methylureido)pyrimidin-4-yl)amino)-5-(4-(2-hydroxyethyl)piperazin-1-yl)phenyl)acrylamide TFA salt]
IC50 (FGFR4): < 1 nM

COc1cc(OC)c(Cl)c(NC(=O)N(C)c2cc(Nc3ccccc3NC(=O)/C=C/Cl)ncn2)c1Cl [Compound 170, (E)-3-chloro-N-(2-((6-(3-(2,6-dichloro-3,5-dimethoxyphenyl)-1-methylureido)pyrimidin-4-yl)amino)phenyl)acrylamide]
IC50 (FGFR4): 8 nM

COc1cc(OC)c(Cl)c(NC(=O)N(C)c2cc(Nc3ccccc3NC(=O)/C=C\Cl)ncn2)c1Cl [Compound 171, (Z)-3-chloro-N-(2-((6-(3-(2,6-dichloro-3,5-dimethoxyphenyl)-1-methylureido)pyrimidin-4-yl)amino)phenyl)acrylamide]
IC50 (FGFR4): 3 nM

CCN1CCN(c2ccc(Nc3cc(N(C)C(=O)Nc4c(Cl)c(OC)cc(OC)c4Cl)ncn3)c(NC(=O)/C=C\Cl)c2)CC1 [Compound 181, (Z)-3-chloro-N-(2-((6-(3-(2,6-dichloro-3,5-dimethoxyphenyl)-1-methylureido)pyrimidin-4-yl)amino)-5-(4-ethylpiperazin-1-yl)phenyl)acrylamide]
IC50 (FGFR4): < 1 nM

C=CC(=O)Nc1ccccc1Nc1cc(N(CCNC(C)C)C(=O)Nc2c(Cl)c(OC)cc(OC)c2Cl)ncn1 [Compound 183]
IC50 (FGFR4): 180 nM

C=CC(=O)Nc1c(F)cccc1Nc1cc(N(C)C(=O)Nc2c(Cl)c(OC)cc(OC)c2Cl)ncn1 [Compound 185, N-(2-((6-(3-(2,6-dichloro-3,5-dimethoxyphenyl)-1-methylureido)pyrimidin-4-yl)amino)-6-fluorophenyl)acrylamide]
IC50 (FGFR4): 13 nM

C=CC(=O)Nc1c(Nc2cc(N(C)C(=O)Nc3c(Cl)c(OC)cc(OC)c3Cl)ncn2)cccc1OC [Compound 186]
IC50 (FGFR4): 345 nM
